How the values were obtained:
[1] = skin irritancy and skin penetration of mixture with oleic acid; conditions: 50:50 mixture with oleic acid
Excerpt: Ethyl oleate gives a better performance still and is optimal in combination with propionic acid.

AChE = target: T1, AChE (Rattus norvegicus, UniProt P37136); test: time-dependent AChE inhibition in rats after phenserine administration
T1 sequence (P37136 32-614): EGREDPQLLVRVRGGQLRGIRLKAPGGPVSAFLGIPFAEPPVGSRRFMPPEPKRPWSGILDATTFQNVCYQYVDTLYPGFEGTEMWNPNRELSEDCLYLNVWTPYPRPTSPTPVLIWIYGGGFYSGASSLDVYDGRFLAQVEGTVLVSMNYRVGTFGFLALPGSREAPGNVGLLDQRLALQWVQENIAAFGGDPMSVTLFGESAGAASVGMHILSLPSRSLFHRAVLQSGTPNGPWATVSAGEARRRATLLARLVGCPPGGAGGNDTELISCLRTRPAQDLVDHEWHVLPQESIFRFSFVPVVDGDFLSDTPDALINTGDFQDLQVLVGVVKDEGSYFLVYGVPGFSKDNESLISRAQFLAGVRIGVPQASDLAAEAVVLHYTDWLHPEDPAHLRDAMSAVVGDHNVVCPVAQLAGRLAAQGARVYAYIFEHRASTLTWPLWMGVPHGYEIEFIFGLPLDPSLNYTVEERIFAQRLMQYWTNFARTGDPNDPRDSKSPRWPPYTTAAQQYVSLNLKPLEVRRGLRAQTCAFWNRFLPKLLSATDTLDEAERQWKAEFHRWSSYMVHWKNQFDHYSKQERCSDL
Procedure: (§1) To determine the time-dependent effects of phenserine on cholinergic function, AChE activity, brain and plasma drug levels and brain extracellular ACh concentrations were measured in rats before and after phenserine administration.

[2] = in vitro penetration across human epidermis in glass diffusion cells; assay type: in vitro ADME
Procedure: Preparation of skin membranes: Human skin is obtained post mortem and may be stored at −20° C. until needed. When required the tissue is allowed to thaw at room temperature and the subcutaneous fat removed. Epidermal sheets are separated from full-thickness skin by immersing in water at 60° C. for 45 seconds and gently peeling away the epidermis. Alternatively, skin may be obtained from another source, such as a mouse or rat.
Absorption studies are performed in vitro using glass diffusion cells, having epidermal membranes mounted in Franz type diffusion cells. For example, Franz type diffusion cells having a cross-sectional area of 2.54 cm^2. The cells may be housed in a water bath to maintain a desired temperature. The upper surface of the membrane is exposed to donor solution and the under surface of the membrane is bathed by continuously stirred receptor fluid. Receptor fluid may be a phosphate buffered saline solution, or any physiological solution.
Membrane integrity may be assayed using methods well known in the art prior to conducting a diffusion assay. […]
Results from absorption experiments are typically plotted as cumulative amount absorbed against time. The steady state penetration rate, or flux, J (μg/cm^2/hr), is typically calculated by linear regression analysis from the linear regions of an absorption plot. […]

brain extracellular ACh = test: striatal in vivo microdialysis in conscious, freely-moving rats
Procedure: as §1

[3] = brain and plasma drug levels in rats after phenserine i.v. dosing
Procedure: as §1

cholinesterase = test: inhibition of cholinesterase activity; assay type: biochemical
Excerpt: The phenserine compounds of the invention may be synthesized using processes known in the art. For example, U.S. Pat. Nos. 6,495,700, 5,409,948, 5,171,750, 5,378,723, and 5,998,460, and WO 03/082270 A1, all of which are hereby incorporated by reference in their entirety, describe the preparation of the phenserine compounds of the invention and enzyme inhibition assays that may be used to test compounds of the invention.

[4] = clinical studies of oral phenserine compound; assay type: in vivo, human; conditions: oral dose of about 10 and/or 15 mg bid
Procedure: Clinical studies indicate that an oral dose of a phenserine compound of about 10 and/or 15 mg bid may produce a beneficial treatment for cognitive disorders, such as AD. […] Therefore, the dosage of a phenserine compound may be reduced when administered transdermally.

[5] = solubility of phenserine or its salt; assay type: physicochemical; conditions: propionic acid as co-solvent with isopropyl myristate and/or oleic acid
Procedure: To assay solubility, between 10-20 mg of phenserine is weighed into a 1 ml volumetric flask. An initial 1 ml volume of a chosen vehicle is added to the flask and the mixture agitated, for example, ultrasonically for at least 30 minutes.

[6] = chemical stability of phenserine in vehicles; assay type: physicochemical
Procedure: The time-course profiles for phenserine penetration across human epidermis from the formulations of the invention are conducted. […] Therefore, breakdown and degradation products, for example, by hydrolysis and subsequent oxidation, are assayed in each vehicle. The vehicles of the invention, including propionic acid and/or oleic acid, are assayed for the chemical stability of a phenserine compound.

[7] = test system: beta amyloid precursor protein; test: production of beta amyloid precursor protein

SMILES	penetration through the skin [1]	skin irritancy [1]	bioavailability (AChE; rat, plasma, po) [%]	half-life of AChE inhibition (AChE; rats, i.v. dosing) [min]	inhibition of AChE (AChE; rats, i.v. dosing) [%]	transdermal flux rate ([2]; 25% in propionic acid/isopropyl myristate)	transdermal flux rate ([2]; 25% in propionic acid/oleic acid)	rise in brain ACh levels (brain extracellular ACh) [fold]	Kp ([3]; rat, brain / plasma, iv)	half-life ([3]; rat, brain, iv) [min]	half-life ([3]; rat, plasma, iv) [min]	time to peak drug level ([3]; rats, i.v. dosing) [min]	inhibition of cholinesterase activity (cholinesterase)	signs of cholinergic over stimulation [4]	effect of co-solvent on solubility [5]	effect of co-solvent on stability ([6]; propionic acid as co-solvent with isopropyl myristate and/or oleic acid)	chemical stability in vehicle ([6]; vehicles of the invention, such as propionic acid and/or oleic acid)	production of beta amyloid precursor protein [7]
CNC(=O)Oc1ccc2c(c1)[C@]1(C)CCN(C)[C@@H]1N2C [physostigmine]	very efficient	non-irritant	–	–	–	–	–	–	–	–	–	–	–	–	–	–	–	–
CN1CC[C@@]2(C)c3cc(OC(=O)Nc4ccccc4)ccc3N(C)C12 (single isomer, unassigned) [phenserine]	–	–	100	> 495	> 70	sufficiently high transdermal flux rates	sufficiently high transdermal flux rates	> 3	10	8.5	12.6	≤ 5	long-acting inhibitor of cholinesterase	does not cause overt signs of cholinergic over stimulation	increase	increase	chemically stable	reduction in β-APP production
CN1CC[C@]2(C)c3cc(OC(=O)Nc4ccccc4)ccc3N(C)C12 (stereo partly drawn) [POSIPHEN, (3aR)-1,3a,8-trimethyl-1,2,3,3a,8,8a-hexahydropyrrolo[2,3-b]indol-5-yl phenylcarbamate]	–	–	–	–	–	–	–	–	–	–	–	–	does not inhibit cholinesterase activity	–	–	–	–	reduces the production of beta amyloid precursor protein

— US20050266060A1, “Transdermal delivery system for treatment of cognitive disorders” (priority 2004, published 2005)
